Results reported in patent US9616107B2, “Therapy for kidney disease and/or heart failure” (priority 2011, dated 2017).
Entries after “also recorded” stand apart in the source; their conditions may differ. Like-named read-outs stand apart in the source and are kept apart here. Marks after values point to notes of the source that are not given here. Ends that are not written are not given here.

Columns and labels:
[1] = assay type: physicochemical
Excerpt: Elliotts B® Solution is a sterile, non-pyrogenic, isotonic buffer that is approved by the United States Food and Drug Administration (FDA) for intrathecal administration of methotrexate sodium and cytarabine. Elliotts B® Solution will be used as a diluent for VD since it provides the appropriate isotonicity and pH attributes desired for SC administration. […] The detailed contents of Elliots B® Solution are provided in the Trial Dispensing Protocol. Storage conditions of the raw material, Elliotts B® Solution, as well as the reconstitution method will be supplied in a Pharmacy Guideline provided during the study.

[2] = Toxicology study of VD in canines: 5-day continuous subcutaneous infusion, plasma VD by radioimmunoassay, clinical observations; assay type: in vivo; details: for half-life / AUC(0-t) / AUC / Tmax / Cmax / t1/2: beagle; for AUC(0-t): data through 122 hours; for average steady state peak concentrations: n=1 per sex
Description: VD was administered to canines via a subcutaneous delivery route. The dosing was performed at a high level to assess the toxicity of VD and to determine if a lethal dosing amount of the VD can be reached by subcutaneous administration.
VD was administered subcutaneously to canines using a Medtronic Paradigm® infusion pump (model MMT772) over a period of 5 days. VD was obtained as an acetate salt (VD-acetate) from Bachem (lot 2502022) and prepared in Tris/Glycerin/m-cresol buffer at a concentration of 15 mg/mL. The Tris/Glycerin/m-cresol buffer was prepared by mixing 16.0 g glycerol, 6.05 g tris-(hydroxymethyl)-aminomethane (“Tris”), 2.50 g meta cresol in a 1.00 L volumetric flask. Approximately 900 mL nanopure water was added to the volumetric flask and the mixture was magnetically stirred to reach complete dissolution. 4 normal hydrochloric acid was used to adjust pH to […] at 25° C.
VD was administered to one male and one female beagle canine at varying dosing amounts. Each canine received a first dosage level for 5 consecutive days followed by a 2-day washout period. Then, the same canines received a second, higher dosage level for an additional 5 consecutive days.
Prior to the beginning of dosing with VD (Day 0), the canines were placed in a sling and the dose site on the dorsolateral thorax was shaved. The shaved area was swabbed with 70% isopropyl alcohol and allowed to dry. DuraPrep™ (3M) was then applied and allowed to dry for 3 minutes. The catheter of the infusion set (Medtronic Silhouette Paradigm® Infusion Set MMT-378) was placed subcutaneously and perpendicular to the spine, and attached to the skin. The extension set was then attached to a previously weighed reservoir filled with VD at a concentration of 15 mg/mL in the Tris/Glycerin/m-cresol buffer. The reservoir was inserted into the pump located in a jacket pocket and dosing was commenced. The jacket was then secured and a collar was placed on each canine. Every day during the 5-day period, the reservoirs were exchanged with new filled reservoirs at approximately the same time each day.
At the end of the first 5-day dosing period, the infusion sets and jackets were removed, the area where the catheter was placed was marked, and the animals were allowed a 2-day washout period prior to the next treatment. For the next treatment at the second dosing amount, a new infusion site was chosen on the skin, and the pump was prepared as before.
The daily dosage level during the first 5-day period (Group 1) was 1.44 mg/(kg·day) (or 1000 ng/(kg·min)) for each canine corresponding with a dosage volume of 0.096 ml/(kg·day). The total dose delivered to each canine over the first 5-day period was 7.20 mg/kg. […] Following the 2-day washout period, the daily dosage level was increased to 2.88 mg/(kg·day) (or 2000 ng/(kg·min)) for each canine corresponding with a dosage volume of 0.192 ml/(kg·day) during the second 5-day period (Group 2). The total dose delivered to each canine over the second 5-day period was 14.4 mg/kg.
All animals were observed twice daily during the first and second 5-day periods for mortality and moribund appearance. Clinical examinations were also performed daily for the animals after dosing began. Detailed physical examinations were conducted on Day 0 prior to dosing and on study Day 5 after the pumps and jackets were removed from the canines. Individual body weights were recorded twice weekly during a 7-day pretest period, on study Day 0 prior to dosing and study Day 5 after the pumps and jackets were removed from the canines. Body weights and body weight changes were calculated for the corresponding intervals. Individual food consumption was recorded daily during the pretest period and throughout the study.
Blood samples for determination of plasma drug concentration were collected at 2, 4, 24 and 96 hours after the beginning of infusion, immediately prior to the end of infusion on Day 5, and 0.5, 1, 1.5, and 2 hours after the end of dosing. […]

## EVVPPQVLSEPNEEAGAALSPLPEVPPWTGEVSPAQR [VD, Vessel Dilator]
[1]
  stability and compatibility of VD in Elliotts B Solution: has been demonstrated
[2]; dog, in vivo, t1/2
  half-life: 0.735 h
[2]; dog, in vivo, female canine, 1.44 mg/kg/day (7.20 mg/kg), SC infusion 5 days
  AUC(0-t): 34700 ng·h/mL
[2]; dog, in vivo, female canine, 1.44 mg/kg/day (7.20 mg/kg), SC infusion 5 days, τ 120 hours, read-out: AUCτ (AUGτ [sic])
  AUC: 34400 ng·h/mL
[2]; dog, in vivo, female canine, 1.44 mg/kg/day (7.20 mg/kg), SC infusion 5 days, hours after start of infusion, read-out: Tmax
  Tmax: 96 h
[2]; dog, in vivo, female canine, 2.88 mg/(kg·day), maximum tolerated dose not determined, read-out: AUC that a maximum tolerated dose would exceed
  AUC: > 63300 ng·h/mL
[2]; dog, in vivo, female canine, 2.88 mg/(kg·day), maximum tolerated dose not determined, read-out: Cmax that a maximum tolerated dose would exceed
  Cmax: > 579 ng/mL
[2]; dog, in vivo, female canine, 2.88 mg/kg/day (14.4 mg/kg), SC infusion 5 days
  AUC(0-t): 64100 ng·h/mL
[2]; dog, in vivo, female canine, 2.88 mg/kg/day (14.4 mg/kg), SC infusion 5 days, τ 120 hours, read-out: AUCτ (AUGτ [sic])
  AUC: 63300 ng·h/mL
[2]; dog, in vivo, female canine, 2.88 mg/kg/day (14.4 mg/kg), SC infusion 5 days, hours after start of infusion, read-out: Tmax
  Tmax: 96 h
[2]; dog, in vivo, female canine, 2.88 mg/kg/day (14.4 mg/kg), SC infusion 5 days, read-out: Cmax
  Cmax: 579 ng/mL
[2]; dog, in vivo, female canine, both dosages, after start of infusion, read-out: Tmax
  Tmax: ~96 h
[2]; dog, in vivo, male canine, 1.44 mg/kg/day (7.20 mg/kg), SC infusion 5 days
  AUC(0-t): 31200 ng·h/mL
[2]; dog, in vivo, male canine, 1.44 mg/kg/day (7.20 mg/kg), SC infusion 5 days, τ 120 hours, read-out: AUCτ (AUGτ [sic])
  AUC: 30800 ng·h/mL
[2]; dog, in vivo, male canine, 2.88 mg/(kg·day), maximum tolerated dose not determined, read-out: AUC that a maximum tolerated dose would exceed
  AUC: > 58200 ng·h/mL
[2]; dog, in vivo, male canine, 2.88 mg/(kg·day), maximum tolerated dose not determined, read-out: Cmax that a maximum tolerated dose would exceed
  Cmax: > 655 ng/mL
[2]; dog, in vivo, male canine, 2.88 mg/kg/day (14.4 mg/kg), SC infusion 5 days
  AUC(0-t): 58900 ng·h/mL
[2]; dog, in vivo, male canine, 2.88 mg/kg/day (14.4 mg/kg), SC infusion 5 days, τ 120 hours, read-out: AUCτ (AUGτ [sic])
  AUC: 58200 ng·h/mL
[2]; both canines, 1.44 then 2.88 mg/(kg·day), 5 days each
  survival and adverse effects on weight, food consumption or behavior: survived to the scheduled study termination without appreciable adverse effects on weight, food consumption or behavior
[2]; both sexes, dog, in vivo, calculated half-life for elimination of Vessel Dilator in plasma
  half-life: 0.7 to 1.2 h
[2]; both sexes, dog, in vivo, sc
  Tmax: 108 h
[2]; canines, 1000 ng/kg·min constant SC dosing 5 days
  average steady state peak concentrations: 257 to 287 ng/mL
[2]; canines, 2000 ng/kg·min constant SC dosing 5 days
  average steady state peak concentrations: 485 to 527 ng/mL
[2]; canines, up to 2.88 mg/(kg·day)
  tolerance and toxicological effects of continuous subcutaneous infusion: high tolerance and no noticeable toxicological effects; also recorded: well-tolerated
[2]; canines, expected
  maximum tolerated dose for prolonged subcutaneous administration: > 2000 ng/kg·min
[2]; dog, in vivo
  effects on body weight: no effects on body weight
  effects related to food consumption: no effects related to food consumption
  fluctuation of plasma concentrations of VD: approximately 30%
  potential VD administration-related clinical observations: reddened ears and/or reddened gums
[2]; dog, in vivo, 2.88 mg/kg/day
  systemic exposure to VD (AUCτ and Cmax) versus dosage: increased proportionally with the increase in dosage
[2]; dogs, continuous five day subcutaneous infusion
  plasma concentration up to which no toxicity issues were shown: ~500 ng/mL
[2]; female, dog, in vivo, sc
  t1/2: 1.21† h
[2]; female, dog, in vivo, sc, t1/2
  half-life: 0.801 h
[2]; male, dog, in vivo
  Tmax: 120 h
[2]; male, dog, in vivo, sc
  Tmax: 120 h
  t1/2: 0.793† h
[2]; male, dog, in vivo, sc, t1/2
  half-life: 0.735 h
